The values below come from patent US11564902B2, “Extended duration local anesthetic formulation” (Ventis Pharma, priority 2015, dated 2023).

The conditions of series [1]: with or without epinephrine; cited from earlier work.
The conditions of series [2]: cited from earlier work; for major nerve block duration: reportedly.
The conditions of series [3]: cited from earlier work.
For series [4] the following is noted: powdered form, room temperature; cited from earlier work.
The nature of series [5]: Toxic dose of local anesthetics on intravascular absorption. The conditions noted are these: inferred from immediate hydrolysis on contact with blood.
Excerpt: Short duration local anesthetics are generally used in 1%-2% concentrations. Current applications for short duration local anesthetics are dictated by toxicity; these toxicities vary by drug. […] Intravascular injection or a toxic dosage carries the risk of potential complications such as cardiac arrhythmias or seizures.
Total dose is adjusted to the specific purpose for the local anesthetic administration.
The conditions of series [6]: contact with blood; cited from earlier work.

Molecules are shown by their SMILES.

`CCCCN1CCCCC1C(=O)Nc1c(C)cccc1C` (stereo not shown) [bupivacaine]: the toxic dose in series [1] was 2.5 mg per kg. In addition, the “major nerve block duration” value in series [2] is recorded as “three to twelve”. Also, the analgesic duration in series [2] (transversus abdominis plane (TAP) block, 30-35 ml per side, abdominal procedures) is 12 to 16 h.
In the case of `CCCCNc1ccc(C(=O)OCCN(C)C)cc1` [tetracaine], in series [3] (0.2% concentration), the motor blockade entry is recorded as “minimal motor blockade” and the neurotoxicity result is given as “not neurotoxic”. For the same compound, the toxic concentration in series [3] (applied directly to nerve structures) is 1%. Moreover, in series [4], the stability entry was “stable at room temperature”. In addition, the actual toxic dose entry in series [5] is listed as “higher than 5 mg/kg”. Moreover, the metabolism in blood result in series [6] was “immediately metabolized in contact with blood”.
In the case of `CCCN(CC)C(CC)C(=O)Nc1c(C)cccc1C` (stereo not shown) [etidocaine], the “major nerve block duration” value in series [2] is “three to twelve”.
